Our source for the IC50 values is patent publication US20250186456A1, “PYRIMIDINE-FUSED CYCLIC COMPOUND AND PREPARATION METHOD AND USE THEREOF” (Genfleet Therapeutics (Shanghai) Inc., priority 2021, published 2025).

Holding throughout (assay type): cell-based, human
The test system of one experiment is AGS cells (KRAS G12D). As to the kind of experiment: Cell proliferation inhibition assay, 3D, CellTiter-Glo 3D, AGS. To be noted: AGS 3D sphere model, 5 days incubation. A digest of the protocol: (§1)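 Spheroids (800 AsPC-1 or 400 AGS cells/well; RPMI-1640 or F-12K with 10% FBS) formed overnight, then were dosed on day 2 with a 3.16-fold series at 0.1% DMSO. After 5 days, viability was read by CellTiter-Glo 3D luminescence, and IC50 came from four-parameter fits of inhibition versus DMSO control and medium blank.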
Background: ATP-based viability assays read luminescence as a measure of living cells.

In experiment [1] the test system is AsPC-1 cells (KRAS G12D mutation). The experiment can be described thus: Cell proliferation inhibition assay, 3D, CellTiter-Glo 3D, AsPC-1. The settings on record: AsPC-1 3D sphere model, 5 days incubation. A digest of the protocol: as §1
Experiment [2] relates to p-ERK in AGS cells (KRAS G12D mutation). The experiment can be described thus: Cell p-ERK assay (HTRF, Advance ERK phospho-T202/Y204 kit). The settings on record: AGS cells, 3 hours incubation with compound, HTRF, read-out: AGS p-ERK IC50. An outline of the steps: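 Phospho-ERK (T202/Y204) measured by HTRF in lysates of human gastric AGS cells carrying KRAS G12D, after 3 h compound exposure at 0.1% DMSO over a 3.16-fold series. Percent inhibition relative to DMSO control and lysis-only blank; four-parameter curve fitting gave IC50.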
In general terms: Time-resolved FRET reads energy transfer from a long-lived donor to a nearby acceptor.

The structures appear in SMILES notation. pIC50: −log10 of the molar value. Like-named read-outs stand apart in the source and are kept apart here.

The term pIC50 denotes the IC50 on a negative log10 scale, so that one unit is a factor of ten. For the compound `C#Cc1c(F)ccc2cccc(-c3nc4c5c(nc(OCC67CCCN6CCC7=C)nc5c3F)N3C[C@H]5CC[C@H](N5)[C@H]3[C@H](C)O4)c12` (stereo partly drawn) [Example Z600, (5S,5aS,6S,9R)-2-(8-ethynyl-7-fluoronaphthalen-1-yl)-1-fluoro-5-methyl-12-((1-methylenetetrahydro-1H-pyrrolizin-7a (5H)-yl)methoxy)-5a,6,7,8,9,10-hexahydro-5H-4-oxa-3,10a, 11, 13, 14-pentaaza-6,9-methanonaphtho[1,8-ab]heptalene], the pIC50 is 7.81 in the experiment on AGS cells (KRAS G12D) (Homo sapiens, 120 h); 7.19 in experiment [1] (Homo sapiens, ASPC1, 120 h); 7.74 in experiment [2] (Homo sapiens).

On to `C#Cc1c(F)ccc2cccc(-c3nc4c5c(nc(OCC67CCC8(CC8)N6CC(=C)C7)nc5c3F)N3C[C@H]5CC[C@H](N5)[C@H]3[C@H](C)O4)c12` (stereo partly drawn) [Example Z597], for which the pIC50 with AGS cells (KRAS G12D) is 7.32; in experiment [1], 7.01; in experiment [2], 7.31.

In the case of `C#Cc1c(F)ccc2cccc(-c3nc4c5c(nc(OCC67CC(=C)CN6[C@H]6C[C@H]6C7)nc5c3F)N3C[C@H]5CC[C@H](N5)[C@H]3[C@H](C)O4)c12` (stereo partly drawn) [Example Z604, (5S,5aS,6S,9R)-2-(8-ethynyl-7-fluoronaphthalen-1-yl)-1-fluoro-5-methyl-12-(((1aS,6aS)-4-methylenehexahydrocyclopropa[b]pyrrolizin-5a (3H)-yl)methoxy)-5a,6,7,8,9,10-hexahydro-5H-4-oxa-3,10a, 11, 13,14-pentaaza-6,9-methanonaphtho[1,8-ab]heptalene], the pIC50 with AGS cells (KRAS G12D) (Homo sapiens, 120 h) is 6.24; in experiment [1] (Homo sapiens, ASPC1, 120 h) it was 6.33; in experiment [2] (Homo sapiens), 7.02.

In the case of `C#Cc1cccc2cc(N)cc(-c3nc4c5c(nc(OCC67C[C@@H](F)CN6CCC7=C)nc5c3F)N3C[C@H]5CC[C@H](N5)[C@H]3[C@H](C)O4)c12` (stereo partly drawn) [Example Z730, 5-ethynyl-4-((5S,5aS,6S,9R)-1-fluoro-12-(((6R)-6-fluoro-1-methylenetetrahydro-1H-pyrrolizin-7a (5H)-yl)methoxy)-S-methyl-5a,6,7,8,9,10-hexahydro-5H-4-oxa-3,10a, 11, 13, 14-pentaaza-6,9-methanonaphtho[1,8-ab]heptalene-2-yl) naphthalen-2-amine], the pIC50 in the experiment on AGS cells (KRAS G12D) was 8.78; in experiment [1] it was 8.44; in experiment [2], 9.27.

For the compound `CCc1cccc2c(F)c(N)cc(-c3nc4c5c(nc(OCC67CCCN6CC(F)(F)C7)nc5c3F)N3C[C@H]5CC[C@H](N5)[C@H]3[C@H](C)O4)c12` (stereo partly drawn) [Example Z729, 4-((5S,5aS,6S,9R)-12-((2,2-difluorotetrahydro-1H-pyrrolizin-7a (5H)-yl)methoxy)-1-fluoro-5-methyl-5a,6,7,8,9,10-hexahydro-5H-4-oxa-3,10a, 11, 13, 14-pentaaza-6,9-methanonaphtho[1,8-ab]heptalene-2-yl)-5-ethyl-1-fluoronaphthalen-2-amine], the pIC50 in the experiment with AGS cells (KRAS G12D) (Homo sapiens, 120 h) was 6.23; in experiment [1] (Homo sapiens, ASPC1, 120 h), 6.12; in experiment [2] (Homo sapiens) it was 6.67.

In the case of `C#Cc1c(F)ccc2cccc(-c3nc4c5c(nc(OCC67CC(=C)CN6CC(F)C7)nc5c3F)N3C[C@H]5CC[C@H](N5)[C@H]3[C@H](C)O4)c12` (stereo partly drawn) [Example Z607, (5S,5aS,6S,9R)-2-(8-ethynyl-7-fluoronaphthalen-1-yl)-1-fluoro-12-((2-fluoro-6-methylenetetrahydro-1H-pyrrolizin-7a (5H)-yl)methoxy)-5-methyl-5a,6,7,8,9,10-hexahydro-5H-4-oxa-3,10a,11,13,14-pentaaza-6,9-methanonaphtho[1,8-ab]heptalene], the pIC50 in the experiment on AGS cells (KRAS G12D) (Homo sapiens, 120 h) is 7.09; in experiment [1] (Homo sapiens, ASPC1, 120 h), 7.00; in experiment [2] (Homo sapiens), 7.61.
